Data set [1] relates to human umbilical endothelial cells (HUVEC). Particulars: 300 μg/ml peptide, 48 h exposure, absorbance 570 nm, n = 6.
Data set [2] deals with LS174T human colorectal cancer cells. Particulars: 300 μg/ml peptide, 48 h exposure, absorbance 570 nm, n = 6.
Data set [3] has as its system LS174T tumor. Kind of data set: Near-infrared fluorescence imaging of LS174T tumor-bearing mice. Particulars: 4 h after i.v. injection; 1 nmol dye/mouse.
For data set [4], the system named is LS174T tumor. In kind it is in vivo, mouse. The conditions noted are these: 20 mg/kg i.p. every other day, 3 doses; 12 days after the optical imaging.

Residues, ends and D or L forms follow the SMILES beside them. No end group written: not given here. *: point of attachment. IRDye800CW = CC1(C)C(/C=C/C2=C(Oc3ccc(S(=O)(=O)O)cc3)C(=C/C=C3/N(CCCCS(=O)(=O)O)c4ccc(S(=O)(=O)O)cc4C3(C)C)/CCC2)=[N+](CCCCCC(=O)*)c2ccc(S(=O)(=O)[O-])cc21

Take LLADTTHHRPWT [BRP]: the results for the “cell viability (MTT)” value in data set [1] and in data set [2] were 92.2 ± 2.4% and 98.3 ± 12.1%, respectively. As to `CC(C)C[C@H](NC(=O)[C@@H](NC(=O)[C@H](Cc1c[nH]c2ccccc12)NC(=O)CCCCC[N+]1=C(C=CC2=C(Oc3ccc(S(=O)(=O)O)cc3)C(=CC=C3N(CCCCS(=O)(=O)O)c4ccc(S(=O)(=O)O)cc4C3(C)C)CCC2)C(C)(C)c2cc(S(=O)(=O)[O-])ccc21)[C@@H](C)O)C(=O)N[C@@H](CCCNC(=N)N)C(=O)N1CCC[C@H]1C(=O)N[C@H](C(=O)N[C@@H](CC(C)C)C(=O)N[C@@H](Cc1c[nH]cn1)C(=O)N[C@H](C(=O)N[C@@H](CC(=O)O)C(=O)N[C@@H](Cc1c[nH]cn1)C(=O)N[C@@H](C)C(=O)O)[C@@H](C)O)[C@@H](C)O` [scrambled peptide dye conjugate] (IRDye800CW-WTLRPTLHTDHA-OH; N-terminus and C-terminus assumed), in data set [3], the “renal clearance in NIR fluorescence images” value is recorded as “cleared through the kidneys much faster than the BRP peptide”. “bevacizumab: humanized monoclonal antibody directed against human VEGF” gave a tumor volume in data set [4] of 476.6 mm^3.

The values are drawn from publication PMC3233971 (Amino acids, 2010).
